Measurements: ChEMBL document CHEMBL1201862, “PubChem BioAssay data set” (2004)
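Dose response: 5 concentrations. Exposure: 48 h. Format: 96-well plates. Endpoint: linear interpolation; highest concentration if not reached. At the GI50, growth is halved.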 Active and inactive are the calls of the source. Rule as the data show it: active = GI50 up to about 1.1 µM and inactive = higher.

How the values were obtained:
Assay in all cases: growth of human tumour cells (NCI), 48 h
NCI-H226 = system: NCI-H226
MDA-MB-231 = system: MDA-MB-231
HOP-92 = system: HOP-92
NCI-H522 = system: NCI-H522
RPMI-8226 = system: RPMI-8226
SNB-75 = system: SNB-75
A549 = system: A549
A498 = system: A498
UACC-62 = system: UACC-62
SK-MEL-5 = system: SK-MEL-5
IGROV-1 = system: IGROV-1
NCI-H23 = system: NCI-H23
OVCAR-3 = system: OVCAR-3
SW-620 = system: SW-620
HL-60 = system: HL-60
HOP-62 = system: HOP-62
OVCAR-5 = system: OVCAR-5
KM12 = system: KM12
SF-268 = system: SF-268

For `COC(=O)CN1CCN(c2cccc3c2CCCC3)CC1`, the GI50 (NCI-H226) was 23.4 µM (inactive), the GI50 (MDA-MB-231) was 71.9 µM (inactive) and the GI50 (HOP-92) was 0.0248 µM (active). For the same compound, the GI50 (NCI-H522) was 67.6 µM (inactive), the GI50 (RPMI-8226) was 25.1 µM (inactive) and the GI50 (SNB-75) was 43.6 µM (inactive). The GI50 (A549) was 69.5 µM (inactive), the GI50 (A498) was > 100 µM (inactive) and the GI50 (UACC-62) was > 100 µM (inactive). For the same compound, the GI50 (SK-MEL-5) was 23.2 µM (inactive), the GI50 (IGROV-1) was > 100 µM (inactive) and the GI50 (NCI-H23) was 13.9 µM (inactive). For the same compound, the GI50 (OVCAR-3) was 19.9 µM (inactive), the GI50 (SW-620) was > 100 µM (inactive) and the GI50 (HL-60) was 35.2 µM (inactive). The GI50 (HOP-62) was > 100 µM (inactive), the GI50 (OVCAR-5) was 48.9 µM (inactive) and the GI50 (KM12) was 43.9 µM (inactive).
In the case of `C/C=C/C1(C)/C(=N\O)C(C)(CCC)C(=O)N1O` (stereo not drawn), the GI50 (NCI-H226) is reported as > 100 µM (inactive), the GI50 (HOP-92) is reported as > 100 µM (inactive) and the GI50 (NCI-H522) is reported as > 100 µM (inactive). For the same compound, the GI50 (RPMI-8226) was > 100 µM (inactive), the GI50 (SNB-75) was > 100 µM (inactive) and the GI50 (A549) was > 100 µM (inactive). For the same compound, the GI50 (A498) was > 100 µM (inactive), the GI50 (UACC-62) was > 100 µM (inactive) and the GI50 (SK-MEL-5) was > 100 µM (inactive). For the same compound, the GI50 (IGROV-1) was > 100 µM (inactive), the GI50 (NCI-H23) was > 100 µM (inactive) and the GI50 (OVCAR-3) was > 100 µM (inactive). The GI50 (SW-620) was > 100 µM (inactive), the GI50 (HL-60) was > 100 µM (inactive) and the GI50 (HOP-62) was > 100 µM (inactive). The GI50 (OVCAR-5) was > 100 µM (inactive) and the GI50 (KM12) was > 100 µM (inactive).
`N#C/C(=C\c1ccccc1)C(NO)Nc1ccccc1` (stereo not drawn) was tested, and the GI50 (NCI-H226) was > 100 µM (inactive), the GI50 (HOP-92) was 57.3 µM (inactive) and the GI50 (NCI-H522) was 35.3 µM (inactive). The GI50 (RPMI-8226) was 58.1 µM (inactive), the GI50 (SNB-75) was 50.6 µM (inactive) and the GI50 (A549) was > 100 µM (inactive). The GI50 (A498) was 80.2 µM (inactive), the GI50 (UACC-62) was 42.1 µM (inactive) and the GI50 (SK-MEL-5) was 53.6 µM (inactive). For the same compound, the GI50 (IGROV-1) was 57.3 µM (inactive), the GI50 (NCI-H23) was > 100 µM (inactive) and the GI50 (OVCAR-3) was 48.2 µM (inactive). The GI50 (SW-620) was 74.8 µM (inactive), the GI50 (HL-60) was > 100 µM (inactive) and the GI50 (SF-268) was 65.3 µM (inactive). For the same compound, the GI50 (HOP-62) was > 100 µM (inactive), the GI50 (OVCAR-5) was > 100 µM (inactive) and the GI50 (KM12) was > 100 µM (inactive).
For `O=C(Nc1nccs1)c1cc(C2=CC=CC([N+](=O)[O-])C=C2)nc(S)n1` (stereo not drawn), the GI50 (NCI-H226) was > 100 µM (inactive), the GI50 (HOP-92) was > 100 µM (inactive) and the GI50 (NCI-H522) was > 100 µM (inactive). For the same compound, the GI50 (RPMI-8226) was > 100 µM (inactive), the GI50 (SNB-75) was > 100 µM (inactive) and the GI50 (A549) was > 100 µM (inactive). The GI50 (A498) was > 100 µM (inactive), the GI50 (UACC-62) was > 100 µM (inactive) and the GI50 (SK-MEL-5) was > 100 µM (inactive). For the same compound, the GI50 (IGROV-1) was > 100 µM (inactive), the GI50 (NCI-H23) was > 100 µM (inactive) and the GI50 (OVCAR-3) was > 100 µM (inactive). The GI50 (SW-620) was > 100 µM (inactive), the GI50 (HL-60) was > 100 µM (inactive) and the GI50 (SF-268) was > 100 µM (inactive). The GI50 (HOP-62) was > 100 µM (inactive), the GI50 (OVCAR-5) was > 100 µM (inactive) and the GI50 (KM12) was > 100 µM (inactive).
With `O=C(CC(=O)C1CCOC1=O)C(=O)Nc1ccc(Cl)cc1Cl` (stereo not drawn) the GI50 (NCI-H226) was > 100 µM (inactive), the GI50 (HOP-92) was > 100 µM (inactive) and the GI50 (NCI-H522) was > 100 µM (inactive). For the same compound, the GI50 (RPMI-8226) was > 100 µM (inactive), the GI50 (SNB-75) was 53.1 µM (inactive) and the GI50 (A549) was > 100 µM (inactive). For the same compound, the GI50 (A498) was > 100 µM (inactive), the GI50 (UACC-62) was > 100 µM (inactive) and the GI50 (SK-MEL-5) was > 100 µM (inactive). For the same compound, the GI50 (IGROV-1) was > 100 µM (inactive), the GI50 (NCI-H23) was > 100 µM (inactive) and the GI50 (OVCAR-3) was > 100 µM (inactive). For the same compound, the GI50 (SW-620) was > 100 µM (inactive), the GI50 (HL-60) was > 100 µM (inactive) and the GI50 (SF-268) was > 100 µM (inactive). For the same compound, the GI50 (HOP-62) was > 100 µM (inactive), the GI50 (OVCAR-5) was > 100 µM (inactive) and the GI50 (KM12) was > 100 µM (inactive).
With `NC(=O)N/N=C1/CCCC/C1=C\c1ccccc1` the GI50 (NCI-H226) was > 100 µM (inactive), the GI50 (HOP-92) was > 100 µM (inactive) and the GI50 (NCI-H522) was > 100 µM (inactive). For the same compound, the GI50 (RPMI-8226) was > 100 µM (inactive), the GI50 (SNB-75) was 76.6 µM (inactive) and the GI50 (A549) was > 100 µM (inactive). The GI50 (A498) was > 100 µM (inactive), the GI50 (UACC-62) was > 100 µM (inactive) and the GI50 (SK-MEL-5) was > 100 µM (inactive). For the same compound, the GI50 (IGROV-1) was > 100 µM (inactive), the GI50 (NCI-H23) was > 100 µM (inactive) and the GI50 (OVCAR-3) was > 100 µM (inactive). For the same compound, the GI50 (SW-620) was > 100 µM (inactive), the GI50 (HL-60) was > 100 µM (inactive) and the GI50 (SF-268) was > 100 µM (inactive). For the same compound, the GI50 (HOP-62) was > 100 µM (inactive), the GI50 (OVCAR-5) was > 100 µM (inactive) and the GI50 (KM12) was > 100 µM (inactive).
For `COc1cc2c(cc1OC)C(Cc1c3ccccc3cc3ccccc13)N(C)CC2` (stereo not drawn), the GI50 (NCI-H226) was 24.1 µM (inactive), the GI50 (HOP-92) was 11.4 µM (inactive) and the GI50 (NCI-H522) was 24.4 µM (inactive). For the same compound, the GI50 (RPMI-8226) was 13.9 µM (inactive), the GI50 (SNB-75) was 14.4 µM (inactive) and the GI50 (A549) was 39.8 µM (inactive). The GI50 (A498) was 17.4 µM (inactive), the GI50 (UACC-62) was 17.8 µM (inactive) and the GI50 (SK-MEL-5) was 17.3 µM (inactive). For the same compound, the GI50 (IGROV-1) was 20.7 µM (inactive), the GI50 (NCI-H23) was 29 µM (inactive) and the GI50 (OVCAR-3) was 27.7 µM (inactive). For the same compound, the GI50 (SW-620) was 27 µM (inactive), the GI50 (HL-60) was 10.4 µM (inactive) and the GI50 (SF-268) was 29 µM (inactive). The GI50 (HOP-62) was 21.4 µM (inactive), the GI50 (OVCAR-5) was 13.5 µM (inactive) and the GI50 (KM12) was 16.3 µM (inactive).
`O=C(Nc1ccc(Cl)c(Cl)c1)C(=O)C(C(=O)c1ccccc1-c1ccccc1)C1OC(=O)c2ccccc21` (stereo not drawn) was tested, and the GI50 (NCI-H226) was 3.04 µM (inactive), the GI50 (HOP-92) was 12.9 µM (inactive) and the GI50 (NCI-H522) was 6.56 µM (inactive). The GI50 (RPMI-8226) was 8.24 µM (inactive), the GI50 (SNB-75) was 13 µM (inactive) and the GI50 (A549) was 21.3 µM (inactive). For the same compound, the GI50 (A498) was 22.9 µM (inactive), the GI50 (UACC-62) was 15.8 µM (inactive) and the GI50 (SK-MEL-5) was 15.1 µM (inactive). The GI50 (IGROV-1) was 24.2 µM (inactive), the GI50 (NCI-H23) was 10.6 µM (inactive) and the GI50 (OVCAR-3) was 13.1 µM (inactive). The GI50 (SW-620) was 19 µM (inactive), the GI50 (HL-60) was 10.9 µM (inactive) and the GI50 (SF-268) was 15.8 µM (inactive). The GI50 (HOP-62) was 13.1 µM (inactive), the GI50 (OVCAR-5) was 18.5 µM (inactive) and the GI50 (KM12) was 14.7 µM (inactive).
